Reference: patent US20250115613A1, “DIARYL COMPOUND AS TUBULIN/SRC DUAL TARGET INHIBITOR” (Wuhan Humanwell Innovative Drug Research and Development …, priority 2022, published 2025)
≈ marks a conversion by molar mass, not a printed value. Like-named read-outs stand apart in the source and are kept apart here.

Columns and labels:
A-431 cells = assay: Inhibition of A-431 cell proliferation; format: cell-based; conditions: Homo sapiens, 96 h, incubated 4 days
Procedure: (§1) Human cutaneous squamous cell carcinoma cell A-431 (ATCC, CRL-1555) and actinic keratosis patient-derived cell HT 297.T (ATCC, CRL-7782) proliferation assays were used to detect the inhibitory effect of small molecular compounds on cell proliferation.
(§2) A-431 cells and HT 297.T cells were cultured in DMEM medium containing 10% fetal bovine serum and grown at 37° C. in a 5% CO2 incubator. Cells on logarithmic phase were seeded into a 96-well cell culture plate at 1000 cells/well, 100 μL per well, and then cultured overnight at 37° C. in a 5% CO2 incubator. The next day, 100 μL of gradient-diluted 2× test compound solution was added to each well, with DMSO serving as a positive control, and 10 μM staurosporine (Aladdin, S102392) was set as a negative control group. After the addition of the compounds, the culture plate was incubated for another 4 days at 37° C. in a 5% CO2 incubator. After incubation, the Steady-Glo® luciferase assay system (Promega, G9243) was used according to the supplier's instructions to measure the fluorescence signal value on the Envision 2104 Multilabel Reader. The inhibition rate was calculated by the following formula, then the curve was plotted with the Log value of the inhibitor concentration as the X-axis and the inhibition rate as the Y-axis, and the IC50 was calculated using Graphpad 8.0.
(§3) Inhibition %=(positive control group signal−test well signal)/(positive control group signal−negative control group signal)*100

[1] = Pharmacokinetic test in mice; format: in vivo; conditions: mouse, plasma
Procedure: For the pharmacokinetic test in mice, 3 male ICR mice, 20 to 25 g, were used, fasted overnight, and administered by tail vein injection (1 mg/kg or 5 mg/kg). Blood was collected before the administration, and at 15 min, 30 min, 1 hour, 2 hours, 4 hours, 8 hours, and 24 hours after the administration. Another 3 mice were taken and administered by oral gavage (5 mg/kg), and blood was collected before the administration, and at 15 min, 30 min, 1 hour, 2 hours, 4 hours, 8 hours, and 24 hours after the administration. Blood samples were centrifuged at 6800 g at 2 to 8° C. for 6 min, and plasma was collected and stored at −80° C. The plasma at each time point was taken and added with an acetonitrile solution containing internal standard in 3 to 5 times the amount. The mixture was vortexed and mixed for 1 min, and centrifuged at 13,000 rpm at 4° C. for 10 min. The supernatant was collected, added with water in 3 times the amount, and mixed. An appropriate amount of the mixture was taken for LC-MS/MS analysis. The main pharmacokinetic parameters were analyzed using WinNonlin 7.0 software with non-compartmental model.

HT 297.T cells = assay: Inhibition of HT 297.T cell proliferation; format: cell-based; conditions: Homo sapiens, 96 h, incubated 4 days
Procedure: as §1, §2, §3

[2] = Human liver microsome stability test; format: in vitro ADME; conditions: human liver microsomes (Corning), NADPH, 37° C.
Procedure: The human liver microsome stability test was performed by incubating the compound and human liver microsomes in vitro. First, the compound to be tested was prepared as a 10 mM stock solution in DMSO solvent, and then the compound was diluted to 0.5 mM with acetonitrile. Human liver microsomes (Corning) were diluted with PBS into a microsome/buffer solution, and the solution was used to dilute 0.5 mM compound into a working solution, in which the concentration of the compound was 1.5 μM, and the concentration of human liver microsomes was 0.75 mg/mL. A deep-well plate was taken, 30 μL of the working solution was added per well, and then 15 μL of pre-heated 6 mM NADPH solution was added thereto to initiate a reaction, and the reaction was incubated at 37° C. At 0 min, 5 min, 15 min, 30 min, and 45 min of the incubation, 135 μL of acetonitrile was added to the corresponding wells to terminate the reaction. After the reaction was terminated with acetonitrile at the last time point of 45 min, the deep-well plate was vortexed and shaken for 10 min (600 rpm), and then centrifuged for 15 min. After centrifugation, the supernatant was collected, and added with purified water in a ratio of 1:1 to perform LC-MS/MS detection. A ratio of a peak area of compound to a peak area of internal standard at each time point was obtained, and the peak area ratios of the compound at 5 min, 15 min, 30 min, and 45 min were compared with the peak area ratio at 0 min to calculate the remaining percentage of the compound at each time point. T1/2 was calculated by using Graphpad 5 software.

tubulin monomer = assay: Inhibition test of tubulin monomer polymerization (Tubulin polymerization assay kit); format: biochemical; conditions: maximum fluorescence signal of polymerization curve; 5 μL of 12.5 μM compound solution; 37° C.; higher value = lower inhibitory efficiency
Procedure: Tubulin polymerization assay kit (cytoskeleton, Cat. #BK011P) was used to conduct the compound inhibition test of tubulin monomer polymerization.
Before the test, the 96-well plate (Corning Costar, Cat. #3686) supplied with the kit was first placed in a microplate reader (MD, SpectraMax M5) and heated to 37° C., maintained for 10 minutes. The 96-well plate was then removed, and 5 μL of 12.5 μM compound solution or blank solution was added thereto. The 96-well plate was then placed back into the microplate reader and incubated at 37° C. for 1 minute to heat the compound solution to 37° C. The 96-well plate was removed and 50 μL of reaction mixture prepared according to the supplier's instructions was quickly added to each well, completing the sample addition within 1 minute to avoid the formation of bubbles. The 96-well plate was then immediately placed back into the microplate reader, shaken for 5 seconds, and using the Kinetic mode, continuous detection was carried out at 37° C. for 30 to 60 minutes under the conditions of excitation light at 360 nm and emission light at 420 nm, with detection every 30 seconds. Taking the detection time as the X-axis and the fluorescence signal value as the Y-axis, the tubulin monomer polymerization curve was obtained. As shown in FIG. 1 and Table 1, the larger the Vmax value and the higher the maximum fluorescence signal value of the polymerization curve, the lower the inhibitory efficiency of the compound.

[3] = Thermodynamic solubility test; format: physicochemical; conditions: thermodynamic from solid
Procedure: Phosphate buffer saline (PBS) with a pH of 7.4, FeSSIF solution with a pH of 6.5, and FaSSGF solution with a pH of 1.6 were prepared. The compound was accurately weighed and added to prepared phosphate buffer saline with a pH of 7.4, FeSSIF solution with a pH of 6.5, and FaSSGF solution with a pH of 1.6 to prepare into a solution with a concentration of 4 mg/mL. The solution was shaken at a speed of 1000 rpm for 1 hour, and then incubated overnight at room temperature. The incubated solution was centrifuged at 12,000 rpm for 10 minutes to remove undissolved particles, and the supernatant was transferred to a new centrifuge tube. After the supernatant was appropriately diluted, an acetonitrile solution containing internal standard was added, and a standard curve prepared with the same matrix was used for quantification.

[4] = male ICR mice, intravenous injection 1 mg/kg
[5] = male ICR mice, intravenous injection 5 mg/kg
[6] = male, ICR, mice, oral gavage 5 mg/kg
[7] = FeSSIF solution, FeSSIF pH 6.5, incubated overnight at room temperature, read-out: Solubility FeSSIF (pH 6.5)
[8] = phosphate buffer saline (PBS), aqueous buffer, PBS pH 7.4, incubated overnight at room temperature, read-out: Solubility PBS (pH 7.4)

IC50 (A-431 cells) [nM] | AUC(0-t) [1, 5] [ng·h/mL] | clearance [1, 5] [mL/min/kg] | SMILES | further results
11.6 | – | – | O=C(Cc1ccc(-c2ccc(OCCN3C[C@H]4COC[C@H]4C3)cc2F)cn1)NCc1ccccc1 [Compound I-1, N-benzyl-2-(5-(2-fluoro-4-(2-((3aR,6aS)-tetrahydro-1H-furo[3,4-c]pyrrol-5(3H)-yl)ethoxy)phenyl)pyridin-2-yl)acetamide] | AUC(0-t) [1, 4]: 299 ng·h/mL; clearance [1, 4]: 47.7 mL/min/kg
14.3 | – | – | O=C(Cc1ccc(-c2ccc(OCCN3CCS(=O)(=O)CC3)cc2)cn1)NCc1ccccc1 [Compound I-3, N-benzyl-2-(5-(4-(2-(1,1-dioxidothiomorpholino)ethoxy)phenyl)pyridin-2-yl)acetamide] | –
22.3 | – | – | O=C(Cc1ccc(-c2ccc(OCCN3CC4(C3)CS(=O)(=O)C4)cc2)cn1)NCc1ccccc1 [Compound I-18, N-benzyl-2-(5-(4-(2-(2,2-dioxido-2-thia-6-azaspiro[3.3]heptan-6-yl)ethoxy)phenyl)pyridin-2-yl)acetamide] | –
6.74 | 2520 | 33.2 | C[C@H]1COCCN1CCOc1ccc(-c2ccc(CC(=O)NCc3ccccc3)nc2)c(F)c1 [Compound I-24A, (S)—N-benzyl-2-(5-(2-fluoro-4-(2-(3-methylmorpholino)ethoxy)phenyl)pyridin-2-yl)acetamide] | IC50 (HT 297.T cells): 8.13 nM; AUC(0-t) [1, 6]: 1090 ng·h/mL; Cmax [1, 6]: 1190 ng/mL
6.47 | 2780 | 30.7 | C[C@@H]1COCCN1CCOc1ccc(-c2ccc(CC(=O)NCc3ccccc3)nc2)c(F)c1 [Compound I-24B, (R)—N-benzyl-2-(5-(2-fluoro-4-(2-(3-methylmorpholino)ethoxy)phenyl)pyridin-2-yl)acetamide] | Maximum signal value (tubulin monomer): 266; IC50 (HT 297.T cells): 8.51 nM; solubility [3, 7]: 69.8 µg/mL (≈ 150 µM); solubility [3, 8]: 11.3 µg/mL (≈ 24.4 µM); AUC(0-t) [1, 6]: 1420 ng·h/mL; Cmax [1, 6]: 1230 ng/mL; half-life at 1 μM [2]: 13.9 min
13.7 | – | – | O=C(Cc1ccc(-c2ccc(OCCNC3CN(C(=O)CC4CC4)C3)cc2)cn1)NCc1ccccc1 [Compound I-26, N-benzyl-2-(5-(4-(2-((1-(2-cyclopropylacetyl)azetidin-3-yl)amino)ethoxy)phenyl)pyridin-2-yl)acetamide] | Maximum signal value (tubulin monomer): 408; solubility [3, 7]: 480 µg/mL (≈ 962 µM); solubility [3, 8]: 22.4 µg/mL (≈ 45 µM); half-life at 1 μM [2]: 42.8 min
3.1 | – | – | N#Cc1cc(OCCN2CCOCC2)ccc1-c1ccc(CC(=O)NCc2ccccc2)nc1 [Compound I-27, N-benzyl-2-(5-(2-cyano-4-(2-morpholinoethoxy)phenyl)pyridin-2-yl)acetamide] | Maximum signal value (tubulin monomer): 0; solubility [3, 7]: 833 µg/mL (≈ 1830 µM); solubility [3, 8]: 85.7 µg/mL (≈ 188 µM)
45.1 | – | – | Cc1cc(OCCN2C[C@H]3COC[C@H]3C2)cc(C)c1-c1ccc(CC(=O)NCc2ccccc2)nc1 [Compound I-29, N-benzyl-2-(5-(2,6-dimethyl-4-(2-((3aR,6aS)-tetrahydro-1H-furo[3,4-c]pyrrol-5(3H)-yl)ethoxy)phenyl)pyridin-2-yl)acetamide] | –
9.12 | 852 | 97.2 | O=C(Cc1ccc(-c2ccc(OCCN3C[C@H]4COC[C@H]4C3)cc2Cl)cn1)NCc1ccccc1 [Compound I-30, N-benzyl-2-(5-(2-chloro-4-(2-((3aR,6aS)-tetrahydro-1H-furo[3,4-c]pyrrol-5(3H)-yl)ethoxy)phenyl)pyridin-2-yl)acetamide] | AUC(0-t) [1, 6]: 508 ng·h/mL; Cmax [1, 6]: 364 ng/mL; half-life at 1 μM [2]: 10.7 min
10.9 | – | – | C[C@@H]1COCCN1CCOc1ccc(-c2ccc(CC(=O)NCc3ccccc3F)nc2)c(F)c1 [Compound I-31, (R)-2-(5-(2-fluoro-4-(2-(3-methylmorpholino)ethoxy)phenyl)pyridin-2-yl)-N-(2-fluorobenzyl)acetamide] | –
9.22 | – | – | C[C@H]1COCCN1CCOc1ccc(-c2ccc(CC(=O)NCc3ccccc3F)nc2)c(F)c1 [Compound I-32, (S)-2-(5-(2-fluoro-4-(2-(3-methylmorpholino)ethoxy)phenyl)pyridin-2-yl)-N-(2-fluorobenzyl)acetamide] | –
49.4 | – | – | Cc1cc(OCCN2C[C@H]3COC[C@H]3C2)ccc1-c1ccc(CC(=O)NCc2ccccc2F)nc1 [Compound I-33, N-(2-fluorobenzyl)-2-(5-(2-methyl-4-(2-((3aR,6aS)-tetrahydro-1H-furo[3,4-c]pyrrol-5(3H)-yl)ethoxy)phenyl)pyridin-2-yl)acetamide] | –
14.8 | – | – | O=C(Cc1ccc(-c2ccc(OCCN3C[C@H]4COC[C@H]4C3)cc2Cl)cn1)NCc1ccccc1F [Compound I-34, 2-(5-(2-chloro-4-(2-((3aR,6aS)-tetrahydro-1H-furo[3,4-c]pyrrol-5(3H)-yl)ethoxy)phenyl)pyridin-2-yl)-N-(2-fluorobenzyl)acetamide] | –
– | 5250 | 15.8 | O=C(Cc1ccc(-c2ccc(OCCN3CCOCC3)cc2)cn1)NCc1ccccc1 [Control compound I, Tirbanibulin, reference compound] | –

SMILES | IC50 (A-431 cells) [nM] | AUC(0-t) [1, 5] [ng·h/mL] | clearance [1, 5] [mL/min/kg] | further results
O=C(Cc1ccc(-c2ccc(OCCN3CC4(COC4)C3)cc2F)cn1)NCc1ccccc1 [Compound I-4, 2-(5-(4-(2-(2-oxa-6-azaspiro[3.3]heptan-6-yl)ethoxy)-2-fluorophenyl)pyridin-2-yl)-N-benzylacetamide] | 8.67 | – | – | IC50 (HT 297.T cells): 21.9 nM; half-life at 1 μM [2]: 47.5 min
Cc1cc(OCCN2CC3(COC3)C2)ccc1-c1ccc(CC(=O)NCc2ccccc2)nc1 [Compound I-5, 2-(5-(4-(2-(2-oxa-6-azaspiro[3.3]heptan-6-yl)ethoxy)-2-methylphenyl)pyridin-2-yl)-N-benzylacetamide] | 16.3 | 2630 | 32.7 | –
